Assay [1] deals with T1, human 20S proteasome (hCP), ChT-L activity.
T1 construct: purchased Boston Biochem (Cambridge, MA, USA)
The experiment in a line: ChT-L peptidase activity of isolated hCP (Suc-LLVY-AMC fluorogenic substrate). The format is biochemical. An excerpt:
(§1) Purified human 20S proteasome (hCP) and the fluorogenic substrates Suc-LLVY-AMC, Z-Leu-Leu-Glu-AMC, and Ac-Arg-Leu-Arg-AMC used to assay the ChT-L, T-L, and C-L activity, were from Boston Biochem (Cambridge, MA, USA). Bathocuproinedisulfonic acid disodium salt (BCS), dithiothreitol (DTT), N-Acetyl-L-Cysteine (NAC), Sodium dodecylsulphate (SDS) as well as CuCl2 and Zn(NO3)2 were from Sigma-Aldrich (St. Louis, MO). Proteasome inhibitors Epoxomicin were obtained from Enzo Life Science. Wild type 20S proteasome isolated from Saccharomices Cerevisiae (yCP) and a mutant (α3ΔN) where nine residues of the N-terminal tail of the α3 subunit are deleted to provide a permanently open-gate conformations were isolated as described elsewhere.
Peptidase activities of hCP (2 nM) were assayed on in 50 μL Tris 25 mM pH 7.6, at 37 °C with 100 μM of the fluorogenic substrate. hCP was incubated with Cu(II)/Zn(II) ions for 1 h prior activity assays. The fluorescence signal activated by peptide cleavage was recorded at 440 nm (excitation at 360 nm) for 45 min, by a Varioskan (Thermo^©) plate reader in 384 multiwell plates. Three replicates were performed for each data point. Data were reported as normalized percentages of residual activity. The potency (IC50) was calculated from the value of the dose response plot corresponding at a fractional activity of 50%. The IC50 values were determined using a non linear fit of experimental data in according to equation: […]
The midpoint of this function occurs at a fractional activity value of 50%, corresponding to half inhibition of the target enzyme. The IC50 values and their standard errors were deduced from the fitting. To evaluate if copper is a reversible PI, we measured the ChT-L activity of hCP incubated with Cu(II) (2.20 μM) before and after addition of an equimolar amount of EDTA.

For assay [2], the system named is T2, α3ΔN mutant 20S proteasome.
T2 construct: made in house; host or cells: Saccharomyces cerevisiae (mutant strain)
The experiment in a line: ChT-L peptidase activity of α3ΔN open-gate mutant yeast proteasome. The format is biochemical, Saccharomices Cerevisiae. The settings on record: permanently open gate mutant. An excerpt: All the experimental data collected so far reconcile with the hypothesis that Cu(II) ions have a direct influence on the gating mechanisms of the 20S proteasome. To further validate this hypothesis, we assayed the effect of Cu(II) ions on the ChT-L peptidase activity of a mutant proteasome (α3ΔN) where deletion of the first nine N terminal residues of the α3 subunit results in permanently open gate conformation. […] It is worthy to remark here that several histidine residues are located at the entrance of the channel and, more specifically in the proximity of the N-terminal tail of the α3 subunit (Fig. 4 panels B and C). It is tempting to speculate that these His residues may play a major role in driving the Copper(II) –mediated gating dynamics.
Purified human 20S proteasome (hCP) and the fluorogenic substrates Suc-LLVY-AMC, Z-Leu-Leu-Glu-AMC, and Ac-Arg-Leu-Arg-AMC used to assay the ChT-L, T-L, and C-L activity, were from Boston Biochem (Cambridge, MA, USA). Bathocuproinedisulfonic acid disodium salt (BCS), dithiothreitol (DTT), N-Acetyl-L-Cysteine (NAC), Sodium dodecylsulphate (SDS) as well as CuCl2 and Zn(NO3)2 were from Sigma-Aldrich (St. Louis, MO). Proteasome inhibitors Epoxomicin were obtained from Enzo Life Science. […]

In assay [3] the test system is T3, Wild type 20S proteasome (yCP).
T3 construct: made in house; host or cells: Saccharomyces cerevisiae
Kind of assay: ChT-L peptidase activity of wild type yeast 20S proteasome (yCP). The format is biochemical, Saccharomices Cerevisiae. The settings on record: one-way ANOVA, p < 0.05.
From the text: Figure 4 (A) Copper(II)-inhibited ChT-L peptidase activity of yCP (red bars) and the α3ΔN mutant (green bars); (pdb code: 4Q1S). […] (B) Top views of the α-rings of yCP. C); Magnified picture of the yCP gate. The first nine residues of the α3 subunit, which are not present in the α3ΔN mutant, are represented in magenta. Two histidines (α6-H14 and α1-H6) located at the entrance of the gate and near the N-terminal segment of the α3 subunit are evidenced in red. A third His residue (α3-H30) is far away from the gate and is not shown.
as §1

Assay [4] has as its system T4, human 20S proteasome (hCP).
T4 construct: purchased Boston Biochem (Cambridge, MA, USA)
The experiment in a line: Native gel electrophoresis of purified hCP (assembly). The settings on record: 1 h incubation with 1 and 5 μM Cu(II). On the procedure: Currently, there are only few molecules known to inhibit the ChT-L, C-L, and T-L proteasome activities to the same extent. In principle, these agents are thought to inactivate the CP by upstream events involving protein damage (e.g. oxidation, disassembling of the enzyme into α and β subunits)[29][30] or, as recently reported, to allosteric effects involving proteasome gating. To address these issues, we performed native gel electrophoresis of purified hCP after 1 h incubation with 1 and 5 μM Cu(II) ions (Fig. 1B). […] Thus, we can exclude that Cu(II)-treated hCP could disassemble in α and β subunits. […] To this aim we i) assayed the presence of Cu(I) species in Cu(II)-loaded hCP samples by UV spectroscopy using bathocuproine disulfonic acid sodium salt (BCS) (see Figure S1 of Supporting Information) and ii) monitored the ROS production using fluorescein as a probe whose fluorescence intensity decreases upon reacting with ROS[32]. […]
Proteasome-enriched fractions were subjected to non denaturing native gel electrophoresis, as described elsewhere. […] Peptidolytic activity of proteasome-enriched fractions from cell lysates was evaluated after incubating the gels in a Suc-LLVY-AMC substrate dissolved in 50 mM Tris pH 8.0, 5 mM MgCl2, 1 mM DTT, 1 mM ATP, at 37 °C for 15 min. […] Images of the gels were acquired by Chemidoc (Biorad), and fluorescent bands were quantified by using the Image J software.

Assay [5] deals with T5, 26S/20S proteasome assembly in Hela cells.
T5 construct: endogenous in cells; host or cells: HeLa cells
Kind of assay: Non-denaturing gel with in-gel peptidase activity of HeLa lysates (20S/26S ratio). Format: cell-based, human. The settings on record: 24 h. As for the experimental part:
Proteasome-enriched fractions were subjected to non denaturing native gel electrophoresis, as described elsewhere. Briefly, 100 μg of fractionated Hela cells lysates, pretreated for 24 h with 0, 20 or 80 μM Cu(II), were run on a 3–12% non-denaturing, gradient polyacrylamide gel (Invitrogen, Carlsbad, CA) according to a protocol reported elsewhere. hCP (2 μM) treated for 2 h with 0 μM, 20 μM and 80 μM of Cu (II) was used as reference control. Peptidolytic activity of proteasome-enriched fractions from cell lysates was evaluated after incubating the gels in a Suc-LLVY-AMC substrate dissolved in 50 mM Tris pH 8.0, 5 mM MgCl2, 1 mM DTT, 1 mM ATP, at 37 °C for 15 min. Proteasome bands were identified by the release of highly fluorescent free AMC which allowed us to identify the proteasome holo and subcomplexes. Images of the gels were acquired by Chemidoc (Biorad), and fluorescent bands were quantified by using the Image J software.

Read-outs that look alike come from different tables or passages of the source.

For orientation: IC50 means the concentration at which inhibition is half-maximal. For `[Cl][Cu][Cl]` [Cu(II), CuCl2], the IC50 in assay [1] (hCP 2 nM, 1 h preincubation with ions, Tris 25 mM pH 7.6, 37 °C, no SDS, read-out: IC50 ChT-L) was 1190 nM; in assay [1] (in the presence of 0.018% SDS, other conditions unmodified, read-out: IC50 ChT-L, Cu(II) + SDS), 730 nM. In addition, in assay [1] (hCP incubated with Cu(II) 2.20 μM, equimolar EDTA added), the “Recovery of ChT-L activity after EDTA addition (reversibility)” value was “did not evidence any recovery of the ChT-L activity”. Besides, in assay [2], the “Effect on ChT-L peptidase activity of α3ΔN mutant” value is given as “did not affect proteasome activity”. Further, the “ChT-L activity of yCP at 5 μM versus 3 μM” value in assay [3] is listed as “significantly lower”. Also, the “hCP assembly by native gel” value in assay [4] is listed as “only a single band is present at 700 kDa”. Also, the “Intensity of CP, CP-RP and CP-RP2 bands” value in assay [5] (20 μM Cu(II)) is “does not vary with respect to control”. Further, the “Intensity of CP, CP-RP1 and CP-RP2 bands” value in assay [5] (80 μM Cu(II)) is “the amount of CP increases”.
